Laboratory results: paper PMC10482691, “LTP induction by structural rather than enzymatic functions of CaMKII” (Nature, 2023)
Values joined by “and” are separate entries in the source; they are usually repeats but may differ in a detail not shown here. Equal entries are not always repeated. Where two headings read alike, the source gives them in different places.

What was measured:
[1] = target: purified CaMKIIα binding to GST–GluN2B-c WT (Homo sapiens, UniProt Q9UQM7); test: CaMKII binding to immobilized GST–GluN2B-c in vitro; conditions: for bound CaMKIIα (immunoblot, relative): Ca2+/CaM
Experimental: CaMKII–GluN2B binding assays were done as described[9],[13],[25]. Briefly, GST–GluN2B-c tail (GST–2BC) was immobilized on anti-GST antibody-coated microtiter plates (Thermo Scientific), blocked for 30 min with 5% BSA and then overlaid with […] CaMKII (subunit concentration) in PIPES-buffered saline (pH 7.2) containing 2 mM Ca^2+, 1 μM CaM, 1 mM Mg^2+, 0.1% BSA and 0.1% Tween-20 for 20 min at room temperature. […] After extensive washes in buffer containing 1 mM EGTA, GST–2BC and bound CaMKII were eluted for 10 min in SDS loading buffer at 95 °C. Bound CaMKII was measured via immunoblot.

[2] = tested on: purified CaMKIIα; test: Km of CaMKII for ATP (GST-GluA1 S831 phosphorylation with increasing ATP); type: biochemical; conditions: 30 °C, 4 independent experiments, read-out: CaMKII Michaelis-Menten constant (Km) for ATP
Experimental: CaMKII-mediated phosphorylation of GluA1 S831 or GluN2B S1303 was measured by in vitro kinase reaction with a purified GST–GluA1 C-terminal tail or GST-GluN2B C-terminal tail. Reactions contained 40 nM CaMKII, 1 μM GST–GluA1, 50 mM PIPES, pH 7.1, 2 mM CaCl2, 10 mM MgCl2, 1 μM calmodulin, 1–4 mM ATP and 1 μM okadaic acid. Negative controls were prepared without ATP. Reactions were done at 30 °C for 20 s; reactions were stopped by adding SDS loading buffer and incubation in a boiling water bath for 5 min. GST, phospho-S831, CaMKII, phospho-T286 or phospho-S1303 were detected in the samples by immunoblot analysis. […]
Data are presented as mean values +/− SEM. a, Comparison of AS105 vs AS283 structure. b, Representative Immunoblots and quantification of in vitro kinase reactions at 30 °C with increasing ATP concentration measuring purified CaMKIIα phosphorylation of GST-GluA1 S831. […] Correlation indices before and after ionomycin-induced colocalization of GFP-CaMKII and mCherry-2BC under vehicle or 10 μM AS105 conditions (n = 23,18 cells; ***p < 0.001, RM two-way ANOVA with Šídák’s multiple comparisons test). Scale bar indicates 10 μm. […] CaMKII synaptic enrichment was measured before and after cLTP (n = 11,10 cells; *p < 0.05; RM two-way ANOVA with Šídák’s multiple comparisons test). […]

[3] = tested on: purified CaMKIIα; parameters: method as in PMID 29294328, PMID 8385100, PMID 19857459, PMID 14558884; conditions: read-out: previously published Km values for ATP; cited from earlier work
[4] = tested on: purified CaMKIIα; test: Km of CaMKII for ATP (GST-GluA1 S831 phosphorylation with increasing ATP); type: biochemical
[5] = target: Arg(h) (Homo sapiens, UniProt P42684); test: Kinase selectivity panel (residual activity at 1 μM); type: biochemical; conditions: inhibitor at 1 μM; read-out: residual kinase activity in % of maximal activity
[6] = target: AMPKα1(h) (Homo sapiens, UniProt Q13131); test: as above; type: biochemical; conditions: inhibitor at 1 μM; read-out: residual kinase activity in % of maximal activity
[7] = target: Aurora-C(h) (Homo sapiens, UniProt Q9UQB9); test: as above; type: biochemical; conditions: inhibitor at 1 μM; read-out: residual kinase activity in % of maximal activity
[8] = target: CaMKI(h) (Homo sapiens, UniProt Q14012); test: as above; type: biochemical; conditions: inhibitor at 1 μM; read-out: residual kinase activity in % of maximal activity
[9] = target: CaMKIIβ(h) (Homo sapiens, UniProt Q13554); test: as above; type: biochemical; conditions: inhibitor at 1 μM; read-out: residual kinase activity in % of maximal activity
[10] = target: CaMKIIγ(h) (Homo sapiens, UniProt Q13555); test: as above; type: biochemical; conditions: inhibitor at 1 μM; read-out: residual kinase activity in % of maximal activity
[11] = target: CaMKIIδ(h) (Homo sapiens, UniProt Q13557); test: as above; type: biochemical; conditions: inhibitor at 1 μM; read-out: residual kinase activity in % of maximal activity
[12] = target: CaMKIV(h) (Homo sapiens, UniProt Q16566); test: as above; type: biochemical; conditions: inhibitor at 1 μM; read-out: residual kinase activity in % of maximal activity
[13] = target: CDK2/cyclinE(h) (Homo sapiens, UniProt P24941); test: as above; type: biochemical; conditions: inhibitor at 1 μM
[14] = target: CDK5/p35(h) (Homo sapiens, UniProt Q00535); test: as above; type: biochemical; conditions: inhibitor at 1 μM; read-out: residual kinase activity in % of maximal activity
[15] = target: cKit(h) (Homo sapiens, UniProt P10721); test: as above; type: biochemical; conditions: inhibitor at 1 μM; read-out: residual kinase activity in % of maximal activity
[16] = target: FAK(h) (Homo sapiens, UniProt Q05397); test: as above; type: biochemical; conditions: inhibitor at 1 μM; read-out: residual kinase activity in % of maximal activity
[17] = target: FGFR1(h) (Homo sapiens, UniProt P11362); test: as above; type: biochemical; conditions: inhibitor at 1 μM; read-out: residual kinase activity in % of maximal activity
[18] = target: Flt3(h) (Homo sapiens, UniProt P36888); test: as above; type: biochemical; conditions: inhibitor at 1 μM; read-out: residual kinase activity in % of maximal activity
[19] = target: GSK3α(h) (Homo sapiens, UniProt P49840); test: as above; type: biochemical; conditions: inhibitor at 1 μM; read-out: residual kinase activity in % of maximal activity
[20] = target: GSK3β(h) (Homo sapiens, UniProt P49841); test: as above; type: biochemical; conditions: inhibitor at 1 μM; read-out: residual kinase activity in % of maximal activity
[21] = target: IGF-1R(h) (Homo sapiens, UniProt P08069); test: as above; type: biochemical; conditions: inhibitor at 1 μM; read-out: residual kinase activity in % of maximal activity
[22] = target: JAK2(h) (Homo sapiens, UniProt O60674); test: as above; type: biochemical; conditions: inhibitor at 1 μM
[23] = target: JAK3(h) (Homo sapiens, UniProt P52333); test: as above; type: biochemical; conditions: inhibitor at 1 μM; read-out: residual kinase activity in % of maximal activity
[24] = target: JNK2α2(h) (Homo sapiens, UniProt P45984); test: as above; type: biochemical; conditions: inhibitor at 1 μM
[25] = target: KDR(h) (Homo sapiens, UniProt P35968); test: as above; type: biochemical; conditions: inhibitor at 1 μM; read-out: residual kinase activity in % of maximal activity
[26] = target: MAPK1(h) (Homo sapiens, UniProt P27361); test: as above; type: biochemical; conditions: inhibitor at 1 μM; read-out: residual kinase activity in % of maximal activity
[27] = target: MAPK2(h) (Homo sapiens, UniProt P28482); test: as above; type: biochemical; conditions: inhibitor at 1 μM; read-out: residual kinase activity in % of maximal activity
[28] = target: MEK1(h) (Homo sapiens, UniProt Q02750); test: as above; type: biochemical; conditions: inhibitor at 1 μM; read-out: residual kinase activity in % of maximal activity
[29] = target: mTOR(h) (Homo sapiens, UniProt P42345); test: as above; type: biochemical; conditions: inhibitor at 1 μM; read-out: residual kinase activity in % of maximal activity
[30] = target: p70S6K(h) (Homo sapiens, UniProt P23443); test: as above; type: biochemical; conditions: inhibitor at 1 μM; read-out: residual kinase activity in % of maximal activity
[31] = target: PAK2(h) (Homo sapiens, UniProt Q13177); test: as above; type: biochemical; conditions: inhibitor at 1 μM; read-out: residual kinase activity in % of maximal activity
[32] = target: PDGFRβ(h) (Homo sapiens, UniProt P09619); test: as above; type: biochemical; conditions: inhibitor at 1 μM; read-out: residual kinase activity in % of maximal activity
[33] = target: PDK1(h) (Homo sapiens, UniProt O15530); test: as above; type: biochemical; conditions: inhibitor at 1 μM; read-out: residual kinase activity in % of maximal activity
[34] = target: Pim-1(h) (Homo sapiens, UniProt P11309); test: as above; type: biochemical; conditions: inhibitor at 1 μM; read-out: residual kinase activity in % of maximal activity
[35] = target: Pim-3(h) (Homo sapiens, UniProt Q86V86); test: as above; type: biochemical; conditions: inhibitor at 1 μM; read-out: residual kinase activity in % of maximal activity
[36] = target: PKBγ(h) (Homo sapiens, UniProt Q9Y243); test: as above; type: biochemical; conditions: inhibitor at 1 μM; read-out: residual kinase activity in % of maximal activity
[37] = target: PKCα(h) (Homo sapiens, UniProt P17252); test: as above; type: biochemical; conditions: inhibitor at 1 μM; read-out: residual kinase activity in % of maximal activity
[38] = target: PKCδ(h) (Homo sapiens, UniProt Q05655); test: as above; type: biochemical; conditions: inhibitor at 1 μM; read-out: residual kinase activity in % of maximal activity
[39] = target: PKG1α(h) (Homo sapiens, UniProt Q13976); test: as above; type: biochemical; conditions: inhibitor at 1 μM; read-out: residual kinase activity in % of maximal activity
[40] = target: PKG1β(h) (Homo sapiens, UniProt Q13976); test: as above; type: biochemical; conditions: inhibitor at 1 μM; read-out: residual kinase activity in % of maximal activity
[41] = target: Ret(h) (Homo sapiens, UniProt P07949); test: as above; type: biochemical; conditions: inhibitor at 1 μM; read-out: residual kinase activity in % of maximal activity
[42] = target: ROCK-II(h) (Homo sapiens, UniProt O75116); test: as above; type: biochemical; conditions: inhibitor at 1 μM; read-out: residual kinase activity in % of maximal activity
[43] = target: SAPK2a(h) (Homo sapiens, UniProt Q16539); test: as above; type: biochemical; conditions: inhibitor at 1 μM
[44] = target: SGK(h) (Homo sapiens, UniProt O00141); test: as above; type: biochemical; conditions: inhibitor at 1 μM; read-out: residual kinase activity in % of maximal activity
[45] = target: PI3 Kinase (p110a/p85a)(h) (Homo sapiens, UniProt P42336); test: as above; type: biochemical; conditions: inhibitor at 1 μM; read-out: residual kinase activity in % of maximal activity
[46] = tested on: GFP–CaMKII in rat hippocampal neurons; test: cLTP-induced CaMKII synaptic enrichment in dissociated hippocampal cultures (GFP–CaMKII WT); type: cell-based; conditions: AS105

Sequence of MAPK1(h) (P27361 whole entry): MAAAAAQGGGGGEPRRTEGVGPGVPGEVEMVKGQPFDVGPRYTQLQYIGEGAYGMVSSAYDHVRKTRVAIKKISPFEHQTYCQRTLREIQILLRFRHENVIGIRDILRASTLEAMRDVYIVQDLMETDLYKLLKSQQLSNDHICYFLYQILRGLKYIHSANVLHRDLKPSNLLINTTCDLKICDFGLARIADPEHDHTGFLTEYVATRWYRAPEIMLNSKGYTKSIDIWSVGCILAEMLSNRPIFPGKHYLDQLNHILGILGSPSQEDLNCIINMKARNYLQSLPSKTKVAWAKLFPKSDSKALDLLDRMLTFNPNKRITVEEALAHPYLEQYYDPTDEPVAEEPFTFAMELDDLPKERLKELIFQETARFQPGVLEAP
Sequence of SAPK2a(h) (Q16539 whole entry): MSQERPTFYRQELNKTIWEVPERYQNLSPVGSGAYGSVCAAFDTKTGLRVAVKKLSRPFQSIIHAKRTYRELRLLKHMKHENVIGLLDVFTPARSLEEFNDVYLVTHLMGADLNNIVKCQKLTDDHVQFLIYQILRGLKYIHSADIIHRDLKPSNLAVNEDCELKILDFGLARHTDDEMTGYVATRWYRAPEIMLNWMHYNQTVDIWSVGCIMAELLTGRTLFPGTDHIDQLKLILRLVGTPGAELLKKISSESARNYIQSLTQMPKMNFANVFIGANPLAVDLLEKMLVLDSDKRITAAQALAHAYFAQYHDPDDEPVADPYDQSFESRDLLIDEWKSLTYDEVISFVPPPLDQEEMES
Sequence of PI3 Kinase (p110a/p85a)(h) (P42336 whole entry): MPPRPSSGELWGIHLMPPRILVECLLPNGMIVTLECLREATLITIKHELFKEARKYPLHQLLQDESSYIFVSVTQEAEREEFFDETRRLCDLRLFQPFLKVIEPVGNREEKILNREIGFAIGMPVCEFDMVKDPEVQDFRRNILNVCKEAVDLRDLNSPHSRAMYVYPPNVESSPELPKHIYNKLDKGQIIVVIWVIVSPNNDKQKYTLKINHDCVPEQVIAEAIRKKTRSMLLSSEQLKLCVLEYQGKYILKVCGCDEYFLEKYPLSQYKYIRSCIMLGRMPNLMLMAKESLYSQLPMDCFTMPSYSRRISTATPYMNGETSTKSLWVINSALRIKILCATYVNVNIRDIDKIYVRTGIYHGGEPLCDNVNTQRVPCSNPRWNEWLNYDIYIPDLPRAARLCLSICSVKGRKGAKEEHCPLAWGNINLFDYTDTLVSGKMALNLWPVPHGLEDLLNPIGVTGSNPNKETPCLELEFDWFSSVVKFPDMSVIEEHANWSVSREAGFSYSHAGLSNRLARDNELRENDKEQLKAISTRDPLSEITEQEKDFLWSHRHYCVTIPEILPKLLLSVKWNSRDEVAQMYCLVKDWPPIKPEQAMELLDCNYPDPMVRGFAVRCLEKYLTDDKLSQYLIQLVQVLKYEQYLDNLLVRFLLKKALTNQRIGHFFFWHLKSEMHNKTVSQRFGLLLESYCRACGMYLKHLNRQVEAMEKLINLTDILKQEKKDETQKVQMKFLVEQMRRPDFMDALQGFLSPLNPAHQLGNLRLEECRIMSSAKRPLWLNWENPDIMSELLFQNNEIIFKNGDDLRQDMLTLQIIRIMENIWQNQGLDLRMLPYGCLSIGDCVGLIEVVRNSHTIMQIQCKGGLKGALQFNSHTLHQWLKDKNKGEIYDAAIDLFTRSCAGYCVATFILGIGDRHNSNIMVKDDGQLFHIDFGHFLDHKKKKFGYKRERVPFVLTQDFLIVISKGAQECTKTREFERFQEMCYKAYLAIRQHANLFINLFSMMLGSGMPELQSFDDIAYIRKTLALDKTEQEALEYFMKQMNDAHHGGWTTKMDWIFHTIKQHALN
Sequence of PI3 Kinase (p110a/p85a)(h) (P27986 whole entry partner): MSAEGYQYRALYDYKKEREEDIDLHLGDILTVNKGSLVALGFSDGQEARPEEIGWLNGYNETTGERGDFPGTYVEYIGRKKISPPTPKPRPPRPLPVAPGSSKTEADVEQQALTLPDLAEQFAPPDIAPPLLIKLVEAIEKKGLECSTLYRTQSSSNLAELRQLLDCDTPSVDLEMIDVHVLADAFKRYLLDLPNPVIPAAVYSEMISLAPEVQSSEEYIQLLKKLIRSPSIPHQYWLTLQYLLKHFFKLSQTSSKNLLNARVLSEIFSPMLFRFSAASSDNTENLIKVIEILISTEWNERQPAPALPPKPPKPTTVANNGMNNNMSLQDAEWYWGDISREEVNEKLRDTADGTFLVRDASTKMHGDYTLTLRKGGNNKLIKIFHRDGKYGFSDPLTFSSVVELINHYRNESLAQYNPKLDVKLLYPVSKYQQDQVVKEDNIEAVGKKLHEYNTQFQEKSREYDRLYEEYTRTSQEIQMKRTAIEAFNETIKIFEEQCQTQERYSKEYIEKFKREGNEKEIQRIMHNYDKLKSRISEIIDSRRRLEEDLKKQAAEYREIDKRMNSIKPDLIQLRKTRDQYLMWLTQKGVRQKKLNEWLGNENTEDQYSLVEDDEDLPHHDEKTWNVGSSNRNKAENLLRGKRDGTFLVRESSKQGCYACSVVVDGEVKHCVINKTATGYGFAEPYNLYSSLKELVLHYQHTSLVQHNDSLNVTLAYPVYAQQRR
Sequence of JNK2α2(h) (P45984 whole entry): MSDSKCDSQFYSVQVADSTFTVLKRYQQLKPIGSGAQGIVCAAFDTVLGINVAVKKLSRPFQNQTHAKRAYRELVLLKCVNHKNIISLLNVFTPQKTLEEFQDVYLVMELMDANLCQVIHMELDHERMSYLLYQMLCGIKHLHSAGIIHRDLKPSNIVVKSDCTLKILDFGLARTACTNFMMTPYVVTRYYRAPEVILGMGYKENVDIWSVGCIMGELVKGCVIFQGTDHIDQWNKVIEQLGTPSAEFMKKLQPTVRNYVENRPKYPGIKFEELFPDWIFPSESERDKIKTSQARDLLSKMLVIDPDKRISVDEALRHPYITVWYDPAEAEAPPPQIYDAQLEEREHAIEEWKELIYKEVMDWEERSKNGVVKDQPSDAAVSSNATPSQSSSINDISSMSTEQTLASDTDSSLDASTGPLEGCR
Sequence of PDK1(h) (O15530 whole entry): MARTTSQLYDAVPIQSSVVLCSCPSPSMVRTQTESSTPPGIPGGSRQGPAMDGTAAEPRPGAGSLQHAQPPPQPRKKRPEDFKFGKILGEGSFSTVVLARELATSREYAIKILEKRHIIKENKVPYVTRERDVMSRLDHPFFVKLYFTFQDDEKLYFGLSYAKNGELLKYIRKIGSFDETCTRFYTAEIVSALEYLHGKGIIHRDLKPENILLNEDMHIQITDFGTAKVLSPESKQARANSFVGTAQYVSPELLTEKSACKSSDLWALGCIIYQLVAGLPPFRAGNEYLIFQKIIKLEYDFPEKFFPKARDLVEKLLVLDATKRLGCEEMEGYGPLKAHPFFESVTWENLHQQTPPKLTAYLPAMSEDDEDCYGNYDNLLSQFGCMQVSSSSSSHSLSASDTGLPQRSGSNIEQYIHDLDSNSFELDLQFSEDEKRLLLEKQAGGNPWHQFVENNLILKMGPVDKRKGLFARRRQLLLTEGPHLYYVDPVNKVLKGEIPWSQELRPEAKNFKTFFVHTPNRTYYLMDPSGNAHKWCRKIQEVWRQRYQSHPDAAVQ
Sequence of SGK(h) (O00141 whole entry): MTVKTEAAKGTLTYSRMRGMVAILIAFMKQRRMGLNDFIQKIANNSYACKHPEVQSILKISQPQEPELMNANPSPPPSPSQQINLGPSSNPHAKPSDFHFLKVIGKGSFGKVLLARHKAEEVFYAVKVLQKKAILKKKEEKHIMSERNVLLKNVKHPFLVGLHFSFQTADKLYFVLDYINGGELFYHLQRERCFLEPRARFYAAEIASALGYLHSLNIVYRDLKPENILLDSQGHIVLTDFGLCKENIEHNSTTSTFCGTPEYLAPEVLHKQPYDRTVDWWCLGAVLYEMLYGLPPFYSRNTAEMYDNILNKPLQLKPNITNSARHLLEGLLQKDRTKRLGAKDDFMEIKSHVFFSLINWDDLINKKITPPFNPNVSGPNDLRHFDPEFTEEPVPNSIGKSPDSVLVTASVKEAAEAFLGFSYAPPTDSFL
Sequence of CaMKIIγ(h) (Q13555 whole entry): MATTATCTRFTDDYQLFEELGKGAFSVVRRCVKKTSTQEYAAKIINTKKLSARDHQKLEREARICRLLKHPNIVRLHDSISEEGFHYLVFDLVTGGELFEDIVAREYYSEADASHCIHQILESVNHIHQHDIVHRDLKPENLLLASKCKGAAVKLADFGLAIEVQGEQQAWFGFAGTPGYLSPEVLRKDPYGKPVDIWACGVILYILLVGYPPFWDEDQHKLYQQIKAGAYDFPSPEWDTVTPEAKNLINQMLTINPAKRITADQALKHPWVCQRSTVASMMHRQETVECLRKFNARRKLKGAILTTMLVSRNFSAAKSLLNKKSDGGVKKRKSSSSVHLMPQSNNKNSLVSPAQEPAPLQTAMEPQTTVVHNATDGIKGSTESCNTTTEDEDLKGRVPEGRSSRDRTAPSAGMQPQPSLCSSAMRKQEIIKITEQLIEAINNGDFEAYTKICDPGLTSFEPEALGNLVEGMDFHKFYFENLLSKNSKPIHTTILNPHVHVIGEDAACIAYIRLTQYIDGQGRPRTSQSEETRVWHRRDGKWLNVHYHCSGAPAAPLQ

Nc1ncnc2c1ncn2[C@@H]1O[C@H](COP(=O)(O)OP(=O)(O)OP(=O)(O)O)[C@@H](O)[C@H]1O [ATP]
bound CaMKIIα (immunoblot, relative) ([1]; 1 mM ATP, GST–GluN2B-c WT): 4.397 and 5.355 and 6.655 and 4.688 | Km [2]: 33.3 µM | Km [3]: 8 to 127 µM | CaMKIIα phosphorylation of GST-GluA1 S831 (relative) ([4]; 1.5625 uM ATP): 0 | CaMKIIα phosphorylation of GST-GluA1 S831 (relative) ([4]; 25 uM ATP): 0.594 and 0.4443 and 0.666 and 0.3478 | CaMKIIα phosphorylation of GST-GluA1 S831 (relative) ([4]; 100 uM ATP): 0.9012 and 0.7992 and 1.006 and 0.6032 | CaMKIIα phosphorylation of GST-GluA1 S831 (relative) ([4]; 200 uM ATP): 1.078 and 0.8135 and 1.004 and 0.7632 | CaMKIIα phosphorylation of GST-GluA1 S831 (relative) ([4]; 400 uM ATP): 1.127 and 0.9367 (2×)

NCCNc1cccc(-c2ccnc(Nc3cccc(Cl)c3)n2)c1 [AS105]
remaining activity at 1 µM [5]: 87% | remaining activity at 1 µM [6]: 38% | remaining activity at 1 µM [7]: 57% | remaining activity at 1 µM [8]: 83% | remaining activity at 1 µM [9]: 6% | remaining activity at 1 µM [10]: 2% | remaining activity at 1 µM [11]: 2% | remaining activity at 1 µM [12]: 101% | residual kinase activity in % of maximal activity [13]: 2% | remaining activity at 1 µM [14]: 1% | remaining activity at 1 µM [15]: 91% | remaining activity at 1 µM [16]: 75% | remaining activity at 1 µM [17]: 91% | remaining activity at 1 µM [18]: 2% | remaining activity at 1 µM [19]: 6% | remaining activity at 1 µM [20]: 11% | remaining activity at 1 µM [21]: 121% | residual kinase activity in % of maximal activity [22]: 134% | remaining activity at 1 µM [23]: 89% | residual kinase activity in % of maximal activity [24]: 79% | remaining activity at 1 µM [25]: 28% | remaining activity at 1 µM [26]: 105% | remaining activity at 1 µM [27]: 106% | remaining activity at 1 µM [28]: 111% | remaining activity at 1 µM [29]: 102% | remaining activity at 1 µM [30]: 77% | remaining activity at 1 µM [31]: 104% | remaining activity at 1 µM [32]: 80% | remaining activity at 1 µM [33]: 109% | remaining activity at 1 µM [34]: 69% | remaining activity at 1 µM [35]: 109% | remaining activity at 1 µM [36]: 76% | remaining activity at 1 µM [37]: 51% | remaining activity at 1 µM [38]: 73% | remaining activity at 1 µM [39]: 61% | remaining activity at 1 µM [40]: 68% | remaining activity at 1 µM [41]: 55% | remaining activity at 1 µM [42]: 43% | residual kinase activity in % of maximal activity [43]: 99% | remaining activity at 1 µM [44]: 97% | remaining activity at 1 µM [45]: 96% | effect on GluN2B binding ([1]; AS105): without inhibiting | bound CaMKIIα (immunoblot, relative) ([1]; 10 μM AS105, no nucleotide): 2.79 and 2.715 and 1.563 | effect on stimulation-induced movement to excitatory synapses [46]: without inhibiting
